Tests used:
Type in all cases: biochemical
[1] = target: T1, TAK1A-TAB fusion protein (Homo sapiens, UniProt O43318); assay: TAK-1 inhibition assay, radiometric filter binding assay; settings: 50 μM ATP, 12 μM bovine myelin basic protein, 20 nM TAK1A-TAB fusion protein
T1 construct: using 20 nM TAK1A-TAB fusion protein
T1 sequence (O43318 with tags, fused parts or gaps isoform O43318-2 limits assumed): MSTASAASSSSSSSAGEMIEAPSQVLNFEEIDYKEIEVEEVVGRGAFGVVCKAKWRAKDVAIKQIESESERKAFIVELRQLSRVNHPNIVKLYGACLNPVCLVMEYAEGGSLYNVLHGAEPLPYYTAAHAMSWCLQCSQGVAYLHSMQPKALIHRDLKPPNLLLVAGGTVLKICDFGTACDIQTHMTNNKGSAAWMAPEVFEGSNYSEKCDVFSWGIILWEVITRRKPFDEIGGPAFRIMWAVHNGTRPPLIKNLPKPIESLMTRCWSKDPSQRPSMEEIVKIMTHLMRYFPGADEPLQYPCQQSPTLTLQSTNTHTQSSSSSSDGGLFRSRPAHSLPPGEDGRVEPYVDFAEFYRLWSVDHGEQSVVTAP
Summary of the method: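 Radiometric filter-binding assay with 20 nM TAK1A-TAB fusion, 50 μM [33P]ATP and 12 μM bovine MBP in pH 7.5 HEPES/MgCl2, NaCl, DTT, 1.5% DMSO. Compounds titrated 0.046–3.73 μM (6 points); 2 h at ~20 °C, TCA quench, filtered counts. Ki derived from rate versus inhibitor concentration.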

[2] = target: SYK (Homo sapiens, UniProt P43405); assay: SYK enzyme assay, coupled enzyme assay; settings: 200 μM ATP, 4 μM poly Gly-Tyr peptide, 30° C.
Summary of the method: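 Pyruvate kinase/lactate dehydrogenase-coupled NADH assay in HEPES pH 7.5 with MgCl2, NaCl, DTT and 1.5% DMSO, using 200 μM ATP, 4 μM poly Gly-Tyr and 25 nM enzyme. Compound at 30 μM final was preincubated ~10 min at 30 °C. Rates were read over 5 min at 30 °C and Ki derived.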

[3] = target: T2, Aurora-2 (Homo sapiens, UniProt O14965); assay: Inhibition of AUR-2, coupled enzyme assay; settings: 70 nM Aurora-2, 800 μM peptide LRRASLG, 30° C.
T2 construct: addition of 10 μL of Aurora-2 stock solution to give a final concentration of 70 nM
T2 sequence (O14965 1-403): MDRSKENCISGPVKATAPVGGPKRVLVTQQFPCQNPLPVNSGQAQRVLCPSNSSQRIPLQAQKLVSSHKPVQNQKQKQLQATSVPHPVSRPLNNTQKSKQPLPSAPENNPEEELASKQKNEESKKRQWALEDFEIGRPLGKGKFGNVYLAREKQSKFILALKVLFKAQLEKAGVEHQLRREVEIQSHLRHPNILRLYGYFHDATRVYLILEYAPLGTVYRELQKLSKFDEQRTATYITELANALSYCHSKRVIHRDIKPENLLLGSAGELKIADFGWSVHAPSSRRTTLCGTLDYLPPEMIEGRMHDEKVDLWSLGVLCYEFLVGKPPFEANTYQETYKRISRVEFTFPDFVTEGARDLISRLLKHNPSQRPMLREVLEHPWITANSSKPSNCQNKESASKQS
Description: Compounds are screened in the following manner for their ability to inhibit Aurora-2 using a standard coupled enzyme assay (Fox et al. (1998) Protein Sci 7, 2249). To an assay stock buffer solution containing 0.1M HEPES 7.5, 10 mM MgCl2, 1 mM DTT, 25 mM NaCl, 2.5 mM phosphoenolpyruvate, […], […], […], and 800 μM peptide (LRRASLG, American Peptide, Sunnyvale, Calif.) is added a DMSO solution of a compound of the present invention to a final concentration of 30 μM. The resulting mixture is incubated at 30° C. for 10 min. The reaction was initiated by the addition of 10 μL of Aurora-2 stock solution to give a final concentration of 70 nM in the assay. The rates of reaction are obtained by monitoring absorbance at 340 nm over a 5 minute read time at 30° C. using a BioRad Ultramark plate reader (Hercules, Calif.). The Ki values are determined from the rate data as a function of inhibitor concentration.

Compound	Ki [1]	Ki [2]	Ki [3]
CN1CCN(C(=O)[C@H]2C[C@@H]2c2cnc3[nH]cc(-c4oncc4-c4cccc(F)c4F)c3c2)CC1 (relative stereo) [Compound 142, trans-(2-{3-[4-(2,3-Difluoro-phenyl)-isoxazol-5-yl]-1H-pyrrolo[2,3-b]pyridin-5-yl}-cyclopropyl)-(4-methyl-piperazin-1-yl)-methanone]	0.2 to 1 µM		
c1ccc(-c2cnoc2-c2c[nH]c3ncccc23)cc1 [Compound 35, 3-[4-Phenyl-isoxazol-5-yl]-1H-pyrrolo[2,3-b]pyridine]		1 to 12.5 µM	
Fc1ccc(F)c(-c2cnoc2-c2c[nH]c3ncccc23)c1F [Compound 41, 3-[4-(2,3,6-Trifluoro-phenyl)-isoxazol-5-yl]-1H-pyrrolo [2,3-b]pyridine]		1 to 12.5 µM	
Fc1cccc(-c2cnoc2-c2c[nH]c3ncc(Cl)cc23)c1F [Compound 44, 3-[4-(2,3-Difluoro-phenyl)-isoxazol-5-yl]-5-chloro-1H-pyrrolo[2,3-b]pyridine]		1 to 12.5 µM	< 0.2 µM
Cc1cnc2[nH]cc(-c3oncc3-c3cccc(F)c3F)c2c1 [Compound 46, 3-[4-(2,3-Difluoro-phenyl)-isoxazol-5-yl]-5-methyl-1H-pyrrolo[2,3-b]pyridine]	1 to 12.5 µM		0.2 to 1 µM
Fc1cccc(-n2cnnc2-c2c[nH]c3ncc(-c4ccc(N5CCNCC5)nc4)cc23)c1F [Compound 111, 3-[4-(2,3-Difluoro-phenyl)-4H-[1,2,4]triazol-3-yl]-5-(6-piperazin-1-yl-pyridin-3-yl)-1H-pyrrolo[2,3-b]pyridine]	1 to 12.5 µM		
CN(C)C1CCC(c2cnc3[nH]cc(-c4oncc4-c4cccc(F)c4F)c3c2)CC1 (stereo not drawn) [Compound 141, (4-{3-[4-(2,3-Difluoro-phenyl)-isoxazol-5-yl]-1H-pyrrolo[2,3-b]pyridin-5-yl}-cyclohexyl)-dimethylamine]	0.2 to 1 µM		
NC(=O)c1ccc(-c2cnc3[nH]cc(-c4oncc4-c4cccc(F)c4F)c3c2)cc1 [Compound 153]			< 0.2 µM
C[N+]1(C)CCN(c2ccc(-c3cnc4[nH]cc(-c5oncc5-c5cccc(F)c5F)c4c3)cc2)CC1 [Compound 155]	< 0.2 µM	0.2 to 1 µM	
